Laboratory results from PMC7720687 (ERJ Open Research, 2020).

Legend:
[1] = molecular target: T1, epithelial sodium channel (ENaC) (Mus musculus, UniProt Q61180+Q9WU38+Q9WU39); assay: Ussing chamber, amiloride-sensitive short-circuit current in M1 monolayers; format: cell-based
T1 sequence (Q61180 1-699): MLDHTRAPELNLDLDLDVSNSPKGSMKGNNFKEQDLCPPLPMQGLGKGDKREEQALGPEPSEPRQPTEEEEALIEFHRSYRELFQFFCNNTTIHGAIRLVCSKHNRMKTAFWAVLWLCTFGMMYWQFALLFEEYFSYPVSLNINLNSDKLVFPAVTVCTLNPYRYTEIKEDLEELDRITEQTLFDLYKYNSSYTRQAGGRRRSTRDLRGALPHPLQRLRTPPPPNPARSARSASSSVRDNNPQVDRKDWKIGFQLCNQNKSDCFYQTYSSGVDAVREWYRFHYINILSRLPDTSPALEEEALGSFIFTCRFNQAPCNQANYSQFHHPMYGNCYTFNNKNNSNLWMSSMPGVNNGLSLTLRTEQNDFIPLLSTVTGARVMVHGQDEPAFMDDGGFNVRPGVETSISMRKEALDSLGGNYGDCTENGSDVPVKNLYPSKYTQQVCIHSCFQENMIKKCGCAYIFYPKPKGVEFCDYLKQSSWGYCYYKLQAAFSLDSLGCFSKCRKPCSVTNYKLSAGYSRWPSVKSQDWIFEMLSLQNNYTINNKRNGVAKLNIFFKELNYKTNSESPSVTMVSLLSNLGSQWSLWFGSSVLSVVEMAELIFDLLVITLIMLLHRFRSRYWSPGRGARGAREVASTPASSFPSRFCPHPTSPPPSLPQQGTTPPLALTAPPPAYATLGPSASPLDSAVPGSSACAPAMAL
T1 sequence (Q9WU38 1-638): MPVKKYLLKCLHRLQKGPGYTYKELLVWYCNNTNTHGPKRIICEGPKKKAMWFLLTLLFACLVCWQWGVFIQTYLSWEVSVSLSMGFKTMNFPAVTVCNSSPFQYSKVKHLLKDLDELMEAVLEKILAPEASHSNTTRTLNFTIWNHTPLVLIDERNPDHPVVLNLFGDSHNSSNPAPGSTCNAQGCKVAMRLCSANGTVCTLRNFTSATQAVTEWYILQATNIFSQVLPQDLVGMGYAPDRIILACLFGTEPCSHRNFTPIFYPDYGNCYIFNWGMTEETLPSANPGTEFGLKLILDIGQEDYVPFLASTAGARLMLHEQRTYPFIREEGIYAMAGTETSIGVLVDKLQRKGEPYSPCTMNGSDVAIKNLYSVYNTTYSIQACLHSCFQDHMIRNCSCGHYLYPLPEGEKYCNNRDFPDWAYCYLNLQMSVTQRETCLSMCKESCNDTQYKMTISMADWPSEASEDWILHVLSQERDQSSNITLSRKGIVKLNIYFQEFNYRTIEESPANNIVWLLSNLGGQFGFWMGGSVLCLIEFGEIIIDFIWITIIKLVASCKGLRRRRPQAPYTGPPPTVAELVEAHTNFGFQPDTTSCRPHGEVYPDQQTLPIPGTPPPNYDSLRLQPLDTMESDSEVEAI
T1 sequence (Q9WU39 1-655): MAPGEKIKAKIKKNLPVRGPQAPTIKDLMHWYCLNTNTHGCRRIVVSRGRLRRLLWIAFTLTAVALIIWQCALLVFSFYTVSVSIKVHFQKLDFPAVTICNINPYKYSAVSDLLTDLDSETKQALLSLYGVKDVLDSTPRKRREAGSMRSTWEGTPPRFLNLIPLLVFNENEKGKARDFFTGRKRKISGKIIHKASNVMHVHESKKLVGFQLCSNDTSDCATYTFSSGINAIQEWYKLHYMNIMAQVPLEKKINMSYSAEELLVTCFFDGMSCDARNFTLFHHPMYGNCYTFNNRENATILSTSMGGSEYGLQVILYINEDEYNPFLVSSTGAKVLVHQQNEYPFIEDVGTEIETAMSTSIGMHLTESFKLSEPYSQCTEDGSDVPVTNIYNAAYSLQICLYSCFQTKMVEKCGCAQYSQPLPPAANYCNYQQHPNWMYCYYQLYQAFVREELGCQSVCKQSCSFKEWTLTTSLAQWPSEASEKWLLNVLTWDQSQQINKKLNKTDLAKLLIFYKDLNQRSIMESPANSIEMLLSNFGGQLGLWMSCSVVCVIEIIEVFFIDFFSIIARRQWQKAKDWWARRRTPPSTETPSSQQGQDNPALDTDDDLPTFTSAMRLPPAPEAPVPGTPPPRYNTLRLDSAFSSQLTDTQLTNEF

[2] = molecular target: T2, epithelial sodium channel (ENaC) (Homo sapiens, UniProt P37088+P51168+P51170); assay: Ussing chamber, amiloride-sensitive short-circuit current in NCI-H441 monolayers; format: cell-based
T2 sequence (P37088 1-669): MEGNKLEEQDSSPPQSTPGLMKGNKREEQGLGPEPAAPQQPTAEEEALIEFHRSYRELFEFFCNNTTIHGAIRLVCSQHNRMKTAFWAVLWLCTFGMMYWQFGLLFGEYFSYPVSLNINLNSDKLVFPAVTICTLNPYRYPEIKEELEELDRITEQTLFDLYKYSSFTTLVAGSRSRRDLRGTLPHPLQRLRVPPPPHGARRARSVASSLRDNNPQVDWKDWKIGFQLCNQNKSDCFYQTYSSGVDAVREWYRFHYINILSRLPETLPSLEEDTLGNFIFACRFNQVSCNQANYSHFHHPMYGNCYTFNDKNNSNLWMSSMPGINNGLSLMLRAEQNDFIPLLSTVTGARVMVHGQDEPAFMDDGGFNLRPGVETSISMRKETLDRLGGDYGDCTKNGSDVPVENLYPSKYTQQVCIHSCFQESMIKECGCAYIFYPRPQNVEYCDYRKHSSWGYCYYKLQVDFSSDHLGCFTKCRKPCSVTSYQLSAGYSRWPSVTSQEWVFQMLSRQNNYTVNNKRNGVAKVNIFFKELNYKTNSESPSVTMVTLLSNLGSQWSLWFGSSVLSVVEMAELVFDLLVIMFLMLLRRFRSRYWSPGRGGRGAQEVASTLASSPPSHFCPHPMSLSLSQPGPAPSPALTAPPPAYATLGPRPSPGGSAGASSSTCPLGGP
T2 sequence (P51168 1-640): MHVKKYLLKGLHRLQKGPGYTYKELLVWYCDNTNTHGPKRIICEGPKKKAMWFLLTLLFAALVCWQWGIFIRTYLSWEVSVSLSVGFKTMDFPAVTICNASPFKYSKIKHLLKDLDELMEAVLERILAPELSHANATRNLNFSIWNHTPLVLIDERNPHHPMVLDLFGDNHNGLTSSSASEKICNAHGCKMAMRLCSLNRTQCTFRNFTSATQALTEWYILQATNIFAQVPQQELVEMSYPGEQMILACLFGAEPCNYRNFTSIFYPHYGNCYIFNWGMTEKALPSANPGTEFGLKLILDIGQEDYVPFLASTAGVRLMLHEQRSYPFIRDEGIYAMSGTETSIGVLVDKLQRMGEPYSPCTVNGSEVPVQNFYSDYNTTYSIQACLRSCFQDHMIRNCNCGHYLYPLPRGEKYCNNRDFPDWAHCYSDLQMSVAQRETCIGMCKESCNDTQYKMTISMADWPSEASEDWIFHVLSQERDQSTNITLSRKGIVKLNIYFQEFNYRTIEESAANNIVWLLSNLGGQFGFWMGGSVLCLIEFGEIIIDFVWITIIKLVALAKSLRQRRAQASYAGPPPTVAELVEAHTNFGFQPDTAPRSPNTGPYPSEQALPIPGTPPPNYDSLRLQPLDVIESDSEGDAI
T2 sequence (P51170 1-649): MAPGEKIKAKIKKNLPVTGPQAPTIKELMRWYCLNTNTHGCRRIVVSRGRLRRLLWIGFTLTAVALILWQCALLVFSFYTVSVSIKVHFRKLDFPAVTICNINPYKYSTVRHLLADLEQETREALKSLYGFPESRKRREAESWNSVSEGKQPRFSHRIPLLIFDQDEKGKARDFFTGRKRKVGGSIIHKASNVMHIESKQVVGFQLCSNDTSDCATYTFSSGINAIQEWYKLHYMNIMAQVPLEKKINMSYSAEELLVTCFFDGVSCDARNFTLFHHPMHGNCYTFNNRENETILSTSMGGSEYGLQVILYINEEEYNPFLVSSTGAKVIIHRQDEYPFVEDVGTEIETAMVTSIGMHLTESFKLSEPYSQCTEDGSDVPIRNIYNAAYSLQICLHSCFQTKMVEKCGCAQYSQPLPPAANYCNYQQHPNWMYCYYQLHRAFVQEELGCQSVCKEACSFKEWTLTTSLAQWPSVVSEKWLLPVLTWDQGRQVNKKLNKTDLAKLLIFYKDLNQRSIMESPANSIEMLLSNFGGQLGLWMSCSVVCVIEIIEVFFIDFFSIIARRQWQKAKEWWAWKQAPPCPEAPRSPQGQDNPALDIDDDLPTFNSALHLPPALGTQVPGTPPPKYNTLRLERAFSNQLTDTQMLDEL

- IC50 [1]: 3 nM
- IC50 [2]: 8 nM
Substance: BI 1265162
